Test results taken from BindingDB's records for doi:10.1021/acs.jmedchem.0c00830 (University of East Anglia, 2020).

Target: Histone deacetylase 3/Nuclear receptor corepressor 2 (HDAC3/NCoR2) (Homo sapiens, UniProt O15379+Q9Y618)
Assay: Inhibition of human C-terminal His-tagged HDAC3 (1 to 428 residues)/human N-terminal GST-tagged NcoR2 (395 to 489 residues) expressed in sf9 cells using p53 (379 to 382 residues) (Arg-His-Lys(Ac)-Lys(Ac)) as substrate by fluorimetric assay

Chain of Histone deacetylase 3/Nuclear receptor corepressor 2 (HDAC3/NCoR2) (O15379 whole entry, the tested form may be a part): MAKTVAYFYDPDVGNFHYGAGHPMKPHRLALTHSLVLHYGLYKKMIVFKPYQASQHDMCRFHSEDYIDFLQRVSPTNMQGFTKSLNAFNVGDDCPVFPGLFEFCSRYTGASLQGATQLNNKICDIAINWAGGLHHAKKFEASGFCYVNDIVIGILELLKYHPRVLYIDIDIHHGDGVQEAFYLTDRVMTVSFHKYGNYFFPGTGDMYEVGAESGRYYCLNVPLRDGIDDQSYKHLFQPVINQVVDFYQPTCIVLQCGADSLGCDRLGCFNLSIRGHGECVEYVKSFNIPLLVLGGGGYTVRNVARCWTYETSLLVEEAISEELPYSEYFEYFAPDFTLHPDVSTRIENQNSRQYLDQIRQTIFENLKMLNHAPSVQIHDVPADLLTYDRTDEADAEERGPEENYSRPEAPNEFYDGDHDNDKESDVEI
Chain of Histone deacetylase 3/Nuclear receptor corepressor 2 (HDAC3/NCoR2) (Q9Y618 whole entry, the tested form may be a part): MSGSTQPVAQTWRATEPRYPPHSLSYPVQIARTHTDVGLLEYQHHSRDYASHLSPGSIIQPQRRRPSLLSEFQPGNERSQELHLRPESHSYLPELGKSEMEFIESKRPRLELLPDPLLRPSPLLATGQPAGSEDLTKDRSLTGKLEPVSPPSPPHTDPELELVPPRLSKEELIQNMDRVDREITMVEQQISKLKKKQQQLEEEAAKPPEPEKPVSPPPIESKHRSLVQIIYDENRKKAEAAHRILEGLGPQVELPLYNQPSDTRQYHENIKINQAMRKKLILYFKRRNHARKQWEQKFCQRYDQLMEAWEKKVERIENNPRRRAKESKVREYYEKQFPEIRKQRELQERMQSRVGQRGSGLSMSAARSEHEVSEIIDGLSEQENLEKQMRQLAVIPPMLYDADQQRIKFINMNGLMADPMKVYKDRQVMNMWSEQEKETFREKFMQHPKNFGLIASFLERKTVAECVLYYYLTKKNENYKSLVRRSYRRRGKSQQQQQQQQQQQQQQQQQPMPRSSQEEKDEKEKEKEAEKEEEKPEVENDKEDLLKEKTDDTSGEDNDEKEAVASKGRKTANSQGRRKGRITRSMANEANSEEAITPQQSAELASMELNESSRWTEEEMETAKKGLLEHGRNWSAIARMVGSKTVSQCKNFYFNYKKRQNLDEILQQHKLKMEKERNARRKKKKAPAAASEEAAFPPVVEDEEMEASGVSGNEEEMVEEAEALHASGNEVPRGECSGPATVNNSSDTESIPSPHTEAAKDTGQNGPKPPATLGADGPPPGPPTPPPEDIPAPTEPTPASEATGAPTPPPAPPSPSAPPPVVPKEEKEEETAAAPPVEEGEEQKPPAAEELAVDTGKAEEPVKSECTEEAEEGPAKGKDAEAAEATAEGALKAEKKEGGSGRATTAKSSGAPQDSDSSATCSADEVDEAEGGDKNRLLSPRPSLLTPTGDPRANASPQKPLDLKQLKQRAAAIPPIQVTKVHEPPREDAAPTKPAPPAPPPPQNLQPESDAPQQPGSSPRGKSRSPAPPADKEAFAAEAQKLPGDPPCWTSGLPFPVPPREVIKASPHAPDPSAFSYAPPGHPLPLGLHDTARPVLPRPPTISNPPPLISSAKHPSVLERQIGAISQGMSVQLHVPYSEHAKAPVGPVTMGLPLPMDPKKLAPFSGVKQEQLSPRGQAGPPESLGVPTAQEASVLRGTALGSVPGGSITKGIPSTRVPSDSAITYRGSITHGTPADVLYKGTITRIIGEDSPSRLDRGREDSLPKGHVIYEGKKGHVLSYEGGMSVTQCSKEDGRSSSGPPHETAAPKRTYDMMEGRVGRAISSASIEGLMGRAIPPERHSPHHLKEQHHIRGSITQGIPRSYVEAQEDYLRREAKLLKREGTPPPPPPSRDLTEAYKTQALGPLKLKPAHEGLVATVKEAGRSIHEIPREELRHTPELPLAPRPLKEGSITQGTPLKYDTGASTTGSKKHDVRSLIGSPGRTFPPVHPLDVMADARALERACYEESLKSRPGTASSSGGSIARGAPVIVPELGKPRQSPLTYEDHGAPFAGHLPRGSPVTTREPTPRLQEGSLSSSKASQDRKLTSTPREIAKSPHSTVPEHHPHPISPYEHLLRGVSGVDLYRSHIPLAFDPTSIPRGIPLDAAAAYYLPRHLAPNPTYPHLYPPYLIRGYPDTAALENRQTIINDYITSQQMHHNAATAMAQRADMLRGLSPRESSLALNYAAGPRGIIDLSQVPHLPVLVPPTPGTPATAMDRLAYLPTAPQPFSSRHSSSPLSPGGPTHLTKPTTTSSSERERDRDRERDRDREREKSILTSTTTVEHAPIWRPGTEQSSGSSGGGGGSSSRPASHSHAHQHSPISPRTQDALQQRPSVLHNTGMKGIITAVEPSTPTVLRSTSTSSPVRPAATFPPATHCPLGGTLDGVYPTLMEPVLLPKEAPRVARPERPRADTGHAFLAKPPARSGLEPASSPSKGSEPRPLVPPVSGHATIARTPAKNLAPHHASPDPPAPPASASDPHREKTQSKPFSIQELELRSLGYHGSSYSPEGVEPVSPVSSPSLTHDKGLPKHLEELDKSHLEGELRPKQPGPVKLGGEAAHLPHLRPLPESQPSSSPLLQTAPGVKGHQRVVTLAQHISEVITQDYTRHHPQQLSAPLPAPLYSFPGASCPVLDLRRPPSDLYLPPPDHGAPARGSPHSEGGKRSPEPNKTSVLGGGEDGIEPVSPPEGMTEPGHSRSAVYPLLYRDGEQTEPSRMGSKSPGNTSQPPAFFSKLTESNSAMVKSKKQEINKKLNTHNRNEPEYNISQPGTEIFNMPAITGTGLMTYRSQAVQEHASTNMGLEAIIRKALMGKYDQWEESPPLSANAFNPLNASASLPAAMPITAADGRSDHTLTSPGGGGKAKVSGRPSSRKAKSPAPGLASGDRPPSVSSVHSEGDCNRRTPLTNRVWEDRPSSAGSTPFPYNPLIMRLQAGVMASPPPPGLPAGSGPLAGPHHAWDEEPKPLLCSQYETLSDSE

## CCCCNNC(=O)c1ccc(Br)cc1 [UF010]
  IC50: 0.06 µM
